# Laboratory results published in a melting point compilation (Tetko et al.; mined from patent text by program, amines drawn as free bases though some values may be those of a salt).
row,SMILES,melting point [°C]
1,N=c1sc2cc(OC(F)(F)F)ccc2n1CCSCc1ccccn1,125
2,CC1(C)C=C(C(=O)NC2COC(C)(C)OCC2O)C(C)(C)N1 (configuration not stated),125 to 127
3,CN(CCc1c[nH]c2ccc(CN)cc12)Cc1ccccc1,84 to 85
4,CCC(O)(c1ccccc1)c1cc(OC)c(OC)c(OC)c1 (configuration not stated),123 to 124
5,Oc1ccc2cc(Br)cc(F)c2c1,124 to 126
6,CCCNc1nc(N)nc(C)c1/C=C/C(C)(C)c1ccc(C(F)(F)F)cc1,140 to 141
7,NS(=O)(=O)c1ccc(NN=C2C(=O)Nc3cc(Oc4ccccc4)ccc32)cc1,> 250
8,CCCNC(=O)CCn1ccc(=O)c(O)c1,113 to 114
9,C=Cn1cc(C(=O)O)c(=O)c2cc(F)c(N3CCN(C)CC3)cc21,242
10,CSC1NC(=O)N(C(C)C)C(=O)N1C (configuration not stated),73 to 75
11,COc1ccc(-c2cc3c(OC)cc(OC)cc3nc2OC(C)C(=O)N(C)C)cc1 (configuration not stated),54 to 55
12,COc1ccc(-c2ccc(-c3ccc(C(=O)O)cc3)cc2-c2ccc3c(c2)C(C)(C)CCC3(C)C)cc1,112 to 115
13,O=C(O)Cc1c[nH]c2cc(C(F)(F)F)nn2c1=O,320 to 324
14,CCC(C)N1CCc2cnc3ccnn3c21 (configuration not stated),199
15,CC1=NC(NC(=O)Nc2cccc(Cl)c2)C(=O)N(CC(=O)N2CC3CCC(CC3)C2)c2c(C)cccc21 (configuration not stated),181 to 185
16,OC(CNCCNc1ccc(Cl)nn1)COc1ccccc1 (configuration not stated),147 to 149
17,O=C(Nc1cc([N+](=O)[O-])c[nH]c1=O)c1ccccc1,267 to 268
18,N#Cc1ccc(N2CCC[C@H]2C(N)=O)c2ccccc12,177 to 178
19,CC(=O)C1=CCC2C3CCC4CC(O)CCC4(C)C3CCC12C (configuration not stated),186 to 188
20,CC(=O)c1c(C)[nH]c(-c2ccccc2C)c1N,258
21,Nc1ccc2c(c1)OCC(=S)N2,205 to 211
22,Cn1c(=O)oc2cc(CCO)cnc21,142 to 144
23,c1ccc(-c2nc3n(n2)Cc2ccccc2-3)cc1,156 to 158
24,CCc1ccc2ncc(C(=O)N(O)c3ccccc3)c(O)c2c1,218
25,C[C@@H](NCCOCc1ccccc1)[C@](O)(Cn1cncn1)c1ccc(Cl)cc1Cl (relative stereo),105 to 107
26,c1ccc(CNc2nc3cc(-c4ccccc4)nnc3c3ccccc23)cc1,207 to 209

row,SMILES,melting point [°C]
1,CN1CC(CCN2CCOCC2)c2nc3ccccc3n2C1=O (configuration not stated),111 to 112
2,Cc1cccc(NC(=O)NCC(=O)N(CC(=O)NCc2ccccc2)c2ccccc2)c1,204
3,CCOC(=O)c1cn(C(C)(C)C)c2nc(N3CC[C@H](N)C3)c(F)cc2c1=O,255
4,CCc1cc2c(ccc(=O)n2Cc2ccc(NC(=O)c3ccccc3S(=O)(=O)O)cc2)c(CC)n1,233 to 236
5,CC(=O)Nc1ccc(S(=O)(=O)Nc2nnc(CO)s2)cc1,101 to 102
6,CCCCCCCCCCCCCCCC(=O)c1c(Br)cc(OC)c(OC)c1C(=O)NC[C@@H]1CCCN1CC,46 to 48
7,CS(=O)(=O)Oc1ccc(-n2nc(C#N)cc2-c2ccc(S(C)(=O)=O)cc2)cc1,195 to 196
8,CCOC(=O)C1=C(C)NN=C(C(=O)OC)C1c1cccc(Cl)c1 (configuration not stated),139
9,COc1cc(-n2c(OC)nc(C(F)(F)F)cc2=O)c(F)cc1Br,175 to 177
10,N=C(N)Nc1nc2cc(Cl)c(Cl)cc2[nH]1,> 260
11,O=C(Nc1cccc(F)c1)c1ccccc1O,157 to 159
12,COc1ccc(N2CCN(c3c(C)c(C)c4c(c3C)C(N3CCN(C)CC3)C(C)(C)O4)CC2)cc1 (configuration not stated),94 to 96
13,CCCCCCCCCCCCS(=O)(=O)Nc1cc(C(=O)Nc2ccccc2)ccc1OC,156 to 157
14,O=C1NCCCN1c1cc(C(c2cc(F)ccc2F)S(=O)(=O)c2ccc(Cl)cc2)c(Cl)cn1 (configuration not stated),> 230
15,COc1ccc2c(c1)CCC(CN1CCC(O)(c3ccccc3)CC1)C2=O (configuration not stated),163 to 165
16,COc1cc2nc(N3CCN(c4ccnc(N5CCOCC5)n4)CC3)nc(N)c2cc1OC,232 to 233
17,Nc1cccc2c1Cc1ccccc1C2=O,158 to 161
18,OCC1Cc2c(c(Cl)cc3c(-c4ccccc4Cl)noc23)O1 (configuration not stated),162 to 163
19,ClCCCN1c2ccccc2OCOc2ccc(Cl)cc21,105 to 108
20,COc1cc2c(cc1OC)S(=O)(=O)N(C)C(C(N)=O)C2 (configuration not stated),215 to 222
21,CC1(COCC(COCC2(C)COC2)(COCC2(C)COC2)COCC2(C)COC2)COC1,108 to 110
22,CCOC(=O)c1cn(C)c2cnc3c(F)c(Cl)c(F)cc3c2c1=O,293
23,CCC(=O)Oc1ccc2c(c1)CCC1C2CCC2(C)C1CC(O)C2OC(=O)CC (configuration not stated),105
24,CCOC(=O)[C@@H]1CSCCCCCCCC(CSC(C)=O)C(=O)N1 (some centres not stated),193 to 196
25,Cc1ccc(C(Cl)=NOS(C)(=O)=O)cc1,100 to 102
26,O=C(CCC1C2CC3CC(C2)CC1C3)N1C(=O)OCC1Cc1ccccc1 (configuration not stated),82 to 83

row,SMILES,melting point [°C]
1,CCOc1cnccc1C#N,56 to 57
2,COC(=O)Nc1cn2cc(Sc3ccccn3)ccc2n1,230 to 236
3,CN(C(CCn1c(=O)cc(-c2ccccc2)[nH]c1=O)C(=O)NO)S(=O)(=O)c1ccc(Oc2ccccc2)cc1 (configuration not stated),179 to 181
4,COC(=O)CCn1cc(Cc2cccnc2)c2cc([N+](=O)[O-])ccc21,101 to 102
5,COc1ccc(C(=O)CCC(=O)O)c2c1OC(C)(C)C2,125 to 126
6,Clc1cc(Cl)cc(Oc2cccc(-c3nnc(Nc4ccc(Cl)c(Cl)c4)s3)c2)c1,242 to 243
7,CCOC(=O)c1nc(CCl)n(-c2ccc(Br)cc2C(=O)c2ccccn2)n1,96 to 97
8,"CC(c1ccccc1)N1Cc2cncn2C(c2cccc(Br)c2)C1=O (single isomer, unassigned; (+))",45 to 50
9,CCCOCc1cc2cc(-c3ccc4c(c3)C=C(C(=O)Nc3ccc(CN(C)C5CCOCC5)cc3)CCS4(=O)=O)ccc2o1,204 to 206
10,CCNC(=O)CC(c1ccc(OC)c(OC)c1)N1C(=O)c2ccccc2C1=O (configuration not stated),131 to 132
11,CC1Nc2ccc(-c3cccc(F)c3)cc2C(C)(C)O1 (configuration not stated),139 to 140
12,COc1ccc(C2CCC(=O)N2c2ccc(OC)cc2)cc1 (configuration not stated),91.5 to 92.5
13,O=c1cc(-c2ccc([N+](=O)[O-])cc2)c2c(O)cc(O)cc2o1,268 to 270
14,CC(=O)Nc1ccc2nc3ccccc3c(-c3cc(C)ccc3C)c2c1,236 to 238
15,c1ccc(NN2Cc3ccccc3C2)nc1,130 to 131
16,CCCc1nc2c(N)nc3cc(OCCCNC(=O)c4cccnc4)ccc3c2n1CC(C)C,172 to 174
17,CC(=O)NCC1CC1c1cccc2nscc12 (configuration not stated),96 to 97
18,CS(=O)(=O)c1ccc(C(CC2CCOCC2)c2cnc(-c3ccccn3)[nH]2)cc1Cl (configuration not stated),106 to 109
19,O=C(NNc1ccccc1Cl)c1ccccc1F,105 to 107
20,O=C(c1ccc(Cl)c([N+](=O)[O-])c1)c1cc2ccccc2o1,132
21,CC(=O)N1CS(=O)c2c1cc(C)cc2[N+](=O)[O-] (configuration not stated),141
22,CC(=O)OC(C)(C)C(=O)Nc1c(C(=O)c2ccccc2)[nH]c2cc(Cl)ccc12,162 to 165
23,Clc1ccc(C2CN3C(=N2)Sc2ccccc23)cc1 (configuration not stated),143
24,COc1ccc(-c2nc(OCC#N)c3cc(OC)ccc3c2[N+](=O)[O-])cc1,192 to 194
25,CCCCNc1nc2ccccc2n2ncc(C(=O)OCC)c12,96
26,CCCc1c(OCc2ccc3ncc(CCC(=O)O)c(=O)n3c2)ccc(C(C)=O)c1O,190 to 194

row,SMILES,melting point [°C]
1,CN(Cc1cc(Cl)c(O)c(Br)c1)C1CCCCC1,136 to 138
2,CCN(CC)CCNc1cc(-c2c(-c3cccc(C)c3)nc3cccnn23)ccn1,97 to 98
3,C=CCOC(=O)c1cccc(NC(=O)NCNC(=O)c2ccccc2C(=O)c2ccccc2)c1,68 to 71
4,CN(C)S(=O)(=O)c1ccccc1-c1ccc2c(c1)S(=O)(=O)NC(C1CCCCC1)N2 (configuration not stated),290 to 300
5,Cc1cc2n(C)c(=O)c3cnc4c(cnn4C)c3n2n1,178 to 180
6,CN(C)Cc1cc2ccc(-c3nnc(CSCCOc4ccccc4)o3)cc2n1S(C)(=O)=O,127 to 130
7,COc1ccc(-c2cc(Cl)c3ccc(OC)cc3n2)cc1,99 to 101
8,COc1ccc2ncc3ncn(-c4ccccc4Cl)c3c2c1,202 to 205
9,CCCCOc1ccc(CC(CC(=O)NO)S(=O)(=O)c2ccc(OC)cc2)cc1 (configuration not stated),55 to 60
10,CCc1nn(CC(N)=O)c(CC)c1Oc1cccc(C#N)c1,159 to 160
11,Cc1cc(NC(=O)CC(C)(C)C)c(C)c2c1OCC2c1ccc(C(C)C)cc1 (configuration not stated),135 to 136
12,CC(=O)Nc1ccccc1S(N)(=O)=O,154 to 156
13,Brc1cn2ccccc2n1,83 to 85
14,COC(=O)c1ccccc1NC(=O)Cc1ccccc1OC,116 to 117
15,CCCN1CCN(c2cccc3c2C[C@H](NC(C)=O)CC3)CC1,139 to 140
16,CCCOC(=O)CC(c1ccc(OC)cc1)N1C(=O)c2ccccc2C1=O (configuration not stated),51.2 to 52.8
17,c1cc(-c2c(-c3ccsc3)nc3ccc(N4CC5CNCC5C4)nn23)ccn1 (configuration not stated),196 to 198
18,CCc1cc2c(O)cc(=O)oc2cc1OC,174 to 175
19,O=C(COc1cc(-c2ccc([N+](=O)[O-])cc2)nc2ccccc12)N1CCOCC1,172
20,CCc1cnc(C2=NC(C)(C(C)C)C(=O)N2)c(C(=O)NCCCC(=O)O)c1 (configuration not stated),165 to 167
21,Cc1c(F)c(F)cc(C(=O)O)c1Cl,121 to 122
22,Cn1cc(-c2cc(-c3cnc4ccccc4c3)ccn2)n(-c2ccc(C(C)(C)C(N)=O)cc2)c1=O,259
23,CON1C(=O)CC12C=CC(=O)C=C2,107 to 109
24,CCOC(=O)c1cc(C)n(-c2cccc(C(N)=O)c2)c1-c1ccccc1,209 to 210
